# Experimental data as given in patent publication EP3860599B1, “(+)-ALPHA-DIHYDROTETRABENAZINE DOSAGE REGIMEN FOR TREATING MOVEMENT DISORDERS” (Adeptio Pharmaceuticals Limited, priority 2018, dated 2020).
# Read-outs that look alike come from different tables or passages of the source.
# Experiments:
# Type in all cases: in vivo
# [1] = Plasma concentrations up to 7 hours after oral dosing of human volunteers, Example 1B; settings: 7.5 mg
# Procedure: Volunteers 1 and 2 were the same as volunteers 1 and 2 in Example 1A described above. […] In addition, in all volunteers PET scans were initiated at 6 hours after drug administration and these were stopped at 7 hours after drug administration. […]
# [2] = test system: non-amphetamine induced rats; test: Open field locomotor activity test in rats without amphetamine induction (Example 2, Study 3); settings: 2.5 mg/kg or 5 mg/kg
# Procedure: (§1) All animal experiments were carried out according to the National Institute of Health (NIH) guidelines for the care and use of laboratory animals, and approved by the National Animal Experiment Board, Finland. Male CD (Charles River Laboratories, Germany) at weight range of 200-250 g (165-200 g upon arrival) were used for the experiments. Animals were housed at a standard temperature (22 ± 1°C) and in a light-controlled environment (lights on from 7 am to 8 pm) with ad libitum access to food and water.
# (§2) Locomotor activity of the rats was tested in open field arena. The open field test was performed during the rat light cycle and under a normal lighting evenly distributed to the test chambers. The paths of the rats were recorded by activity monitor (Med. Associates Inc.).
# (§3) Dosing the vehicle, vehicle-amphetamine, (+)-α-DHTBZ or risperidone was done prior to LMA test. The rats were placed in the centre of the arena, and the path was recorded for 60 minutes.
# Animals were grouped as follows: • Group 1: 10 rats treated with Vehicle • Group 2: 10 rats treated with (+)-α-DHTBZ 2.5 mg/kg • Group 3: 10 rats treated with (+)-α-DHTBZ 5 mg/kg • Group 4: 10 rats treated with risperidone 1 mg/kg
# amphetamine-induced rats = test: Open field locomotor activity test in amphetamine-induced rats (Example 2, Studies 1, 2 and 4)
# Procedure: as §1, §2, §3
# Animals were grouped as follows: • Group 1: 10 rats treated with Vehicle (t= 0 min) and Vehicle (t= 30 min) • Group 2: 10 rats treated with Vehicle (t= 0 min) and Amphetamine (t= 30 min) • Group 3: 10 rats treated with (+)-α-DHTBZ 0.5 mg/kg (t=0 min) and Amphetamine (t= 30 min) • Group 4: 10 rats treated with (+)-α-DHTBZ 1 mg/kg (t=0 min) and Amphetamine (t= 30 min) • Group 5: 10 rats treated with (+)-α-DHTBZ 1.5 mg/kg (t=0 min) and Amphetamine (t= 30 min) • Group 6: 10 rats treated with (+)-α-DHTBZ 2 mg/kg (t=0 min) and Amphetamine (t= 30 min) • Group 7: 10 rats treated with risperidone 1 mg/kg (t=0 min) and Amphetamine (t= 30 min)
# Animals were grouped as follows: • Group 1: 10 rats treated with Vehicle (t= 0 min) and Vehicle (t= 30 min) • Group 2: 10 rats treated with Vehicle (t= 0 min) and Amphetamine (t= 30 min) • Group 3: 10 rats treated with (+)-α-DHTBZ 0.1 mg/kg (t=0 min) and Amphetamine (t=30 min) • Group 4: 10 rats treated with (+)-α-DHTBZ 0.25 mg/kg (t=0 min) and Amphetamine (t=30 min) • Group 5: 10 rats treated with risperidone 1 mg/kg (t=0 min) and Amphetamine (t= 30 min)
# Animals were grouped as follows: • Group 1: 10 rats treated with Vehicle (t= 0 min) and Vehicle (t= 30 min) • Group 2: 10 rats treated with Vehicle (t= 0 min) and Amphetamine (t= 30 min) • Group 3: 10 rats treated with (+)-α-DHTBZ 1 mg/kg (t=0 min) and Amphetamine (t=30 min) • Group 4: 10 rats treated with (+)-α-DHTBZ 1.5 mg/kg (t=0 min) and Amphetamine (t=30 min) • Group 5: 10 rats treated with Valbenazine 1 mg/kg (t=0 min) and Amphetamine (t=30 min) • Group 6: 10 rats treated with Valbenazine 1.5 mg/kg (t=0 min) and Amphetamine (t=30 min) • Group 7: 10 rats treated with risperidone 1 mg/kg (t=0 min) and Amphetamine (t= 30 min)
# VMAT2 = target: T1, VMAT2 (Homo sapiens, UniProt Q05940); test: % VMAT2 blocking by PET scan after oral dosing of human volunteers, Example 1A
# T1 construct: from tissue
# Excerpt: Complete blocking of VMAT2 is considered undesirable as this can lead to unwanted side effects, such as Parkinsonism. […] The levels of VMAT2 blocking can be determined by competitive binding studies using Positron Emission Tomography (PET). By co-administering a radioactive ligand with the compound of interest at various concentrations, the proportion of binding sites occupied can be determined (see for example, Matthews et al., "Positron emission tomography molecular imaging for drug development", Br. J. Clin. Pharmacol., 73:2, 175-186).
# Blood samples were taken at 30, 60, 120 and 180 minutes after drug administration. At 60 minutes after drug administration, PET scans were initiated and these were stopped at 120 minutes after drug administration.
# The experiment was carried out at dosages of 7.5 mg, 15 mg and 22.5 mg.
# [3] = po, Example 1B subject 1 (112 kg), 7.5 mg oral
# [4] = po, Example 1B subject 2 (76 kg), 7.5 mg oral
# [5] = po, Example 1B subject 3 (76 kg), 7.5 mg oral
# [6] = po, Example 1B subject 4 (95 kg), 7.5 mg oral
# [7] = po, Example 1B subject 5 (99 kg), 7.5 mg oral
# [8] = po, Example 1B subject 6 (107 kg), 7.5 mg oral
# [9] = Study 1 conclusions, all the tested doses (0.5, 1, 1.5 and 2 mg/kg)
# T1 sequence (Q05940 whole entry): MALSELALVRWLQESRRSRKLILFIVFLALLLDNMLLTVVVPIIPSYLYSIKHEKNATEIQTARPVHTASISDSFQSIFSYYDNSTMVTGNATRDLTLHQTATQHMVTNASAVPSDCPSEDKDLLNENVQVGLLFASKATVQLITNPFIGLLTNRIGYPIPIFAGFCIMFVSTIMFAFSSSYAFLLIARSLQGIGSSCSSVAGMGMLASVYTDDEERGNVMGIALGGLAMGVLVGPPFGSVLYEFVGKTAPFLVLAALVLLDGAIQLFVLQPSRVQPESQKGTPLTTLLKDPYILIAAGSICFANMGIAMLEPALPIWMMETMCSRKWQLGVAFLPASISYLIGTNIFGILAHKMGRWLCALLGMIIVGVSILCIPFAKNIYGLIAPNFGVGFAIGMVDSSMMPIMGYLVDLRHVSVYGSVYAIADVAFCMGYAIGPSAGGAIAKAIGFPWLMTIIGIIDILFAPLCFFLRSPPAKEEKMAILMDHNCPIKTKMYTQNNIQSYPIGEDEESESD
structure (smiles),measurement,setting,value
"COc1cc2c(cc1OC)[C@H]1C[C@@H](O)[C@H](CC(C)C)CN1CC2 [(+)-α-dihydrotetrabenazine, (R,R,R)-3-isobutyl-9,10-dimethyloxy-1,3,4,5,7,11b-hexahydro-2H-pyrido[2,1-a]isoquinolin-2-ol]",concentration at 6 h,"[1]; oral, after 6 hours following administration of 7.5mg, read-out: blood plasma concentrations",< 15 ng/mL
same,concentration at 2 h,[1]; [3],8.7 ng/mL
same,concentration at 4 h,[1]; [3],6.01 ng/mL
same,concentration at 6 h,"[1]; po, Example 1B subject 1 (112 kg), 7.5 mg oral, 6 h, read-out: plasma concentrations",4.54 ng/mL
same,concentration at 7 h,[1]; [3],3.65 ng/mL
same,concentration at 2 h,[1]; [4],11.7 ng/mL
same,concentration at 4 h,[1]; [4],17.5 ng/mL
same,concentration at 6 h,"[1]; po, Example 1B subject 2 (76 kg), 7.5 mg oral, 6 h, read-out: plasma concentrations",13.4 ng/mL
same,concentration at 7 h,[1]; [4],11.6 ng/mL
same,concentration at 2 h,[1]; [5],12.8 ng/mL
same,concentration at 4 h,[1]; [5],7.92 ng/mL
same,concentration at 6 h,"[1]; po, Example 1B subject 3 (76 kg), 7.5 mg oral, 6 h, read-out: plasma concentrations",5.57 ng/mL
same,concentration at 7 h,[1]; [5],4.84 ng/mL
same,concentration at 1 h,[1]; [6],21.4 ng/mL
same,concentration at 2 h,[1]; [6],13.9 ng/mL
same,concentration at 3 h,[1]; [6],10.6 ng/mL
same,concentration at 4 h,[1]; [6],7.81 ng/mL
same,concentration at 5 h,[1]; [6],6.59 ng/mL
same,concentration at 6 h,"[1]; po, Example 1B subject 4 (95 kg), 7.5 mg oral, 6 h, read-out: plasma concentrations",4.92 ng/mL
same,concentration at 7 h,[1]; [6],4.91 ng/mL
same,concentration at 1 h,[1]; [7],5.64 ng/mL
same,concentration at 2 h,[1]; [7],7.59 ng/mL
same,concentration at 3 h,[1]; [7],5.84 ng/mL
same,concentration at 4 h,[1]; [7],4.58 ng/mL
same,concentration at 5 h,[1]; [7],3.66 ng/mL
same,concentration at 6 h,"[1]; po, Example 1B subject 5 (99 kg), 7.5 mg oral, 6 h, read-out: plasma concentrations",3.35 ng/mL
same,concentration at 7 h,[1]; [7],2.47 ng/mL
same,concentration at 1 h,[1]; [8],4.86 ng/mL
same,concentration at 2 h,[1]; [8],6.3 ng/mL
same,concentration at 3 h,[1]; [8],6.69 ng/mL
same,concentration at 4 h,[1]; [8],5.61 ng/mL
same,concentration at 5 h,[1]; [8],5.19 ng/mL
same,concentration at 6 h,"[1]; po, Example 1B subject 6 (107 kg), 7.5 mg oral, 6 h, read-out: plasma concentrations",4.44 ng/mL
same,concentration at 7 h,[1]; [8],3.36 ng/mL
same,stereotypic behaviour versus rats treated with the vehicle,[2],comparable
same,total movement versus rats treated with the vehicle,[2],comparable
same,locomotor activity when compared to the vehicle-amphetamine group,amphetamine-induced rats; [9],lower locomotor activity
same,stereotypic behaviour when compared to the vehicle-amphetamine group,amphetamine-induced rats; [9],reduced stereotypic behaviour
same,locomotor activity when compared to the vehicle-amphetamine group,"amphetamine-induced rats; Study 2 conclusions, 0.25 mg/kg",lower locomotor activity
same,stereotypic behaviour when compared to the vehicle-amphetamine group,"amphetamine-induced rats; Study 2 conclusions, both the tested doses (0.1 mg/kg and 0.25 mg/kg)",reduced stereotypic behaviour
same,locomotor activity when compared to the vehicle-amphetamine group and the corresponding dose of Valbenazine,"amphetamine-induced rats; Study 4 conclusions, 1 mg/kg and 1.5 mg/kg",lower locomotor activity
same,stereotypic behaviour when compared to the vehicle-amphetamine group and the corresponding dose of Valbenazine,"amphetamine-induced rats; Study 4 conclusions, both the tested doses (1 mg/kg and 1.5 mg/kg)",reduced stereotypic behaviour
same,% VMAT2 blocking,"VMAT2; even in heavier individuals, doses as low as 7.5 mg",at least 50%
same,% VMAT2 blocking,"VMAT2; subject 1 (112 kg), 7.5 mg oral, PET scan 60-120 minutes after administration",54%
same,% VMAT2 blocking,"VMAT2; subject 1 (112 kg), 15 mg oral, PET scan 60-120 minutes after administration",73%
same,% VMAT2 blocking,"VMAT2; subject 1 (112 kg), 22.5 mg oral, PET scan 60-120 minutes after administration",75%
same,% VMAT2 blocking,"VMAT2; subject 2 (76 kg), 7.5 mg oral, PET scan 60-120 minutes after administration",73%
same,% VMAT2 blocking,"VMAT2; subject 2 (76 kg), 15 mg oral, PET scan 60-120 minutes after administration",83%
same,% VMAT2 blocking,"VMAT2; subject 2 (76 kg), 22.5 mg oral, PET scan 60-120 minutes after administration",82%
same,% VMAT2 blocking,"VMAT2; subject 3 (129 kg), 7.5 mg oral, PET scan 60-120 minutes after administration",62%
same,% VMAT2 blocking,"VMAT2; subject 3 (129 kg), 15 mg oral, PET scan 60-120 minutes after administration",69%
same,% VMAT2 blocking,"VMAT2; subject 3 (129 kg), 22.5 mg oral, PET scan 60-120 minutes after administration",74%
same,% VMAT2 blocking,"VMAT2; subject 4 (59 kg), 7.5 mg oral, PET scan 60-120 minutes after administration",84%
same,% VMAT2 blocking,"VMAT2; subject 4 (59 kg), 15 mg oral, PET scan 60-120 minutes after administration",89%
same,% VMAT2 blocking,"VMAT2; subject 5 (91 kg), 7.5 mg oral, PET scan 60-120 minutes after administration",73%
same,% VMAT2 blocking,"VMAT2; subject 5 (91 kg), 15 mg oral, PET scan 60-120 minutes after administration",79%
same,% VMAT2 blocking,"VMAT2; subject 5 (91 kg), 22.5 mg oral, PET scan 60-120 minutes after administration",82%
same,% VMAT2 blocking,"VMAT2; subject 6 (68 kg), 7.5 mg oral, PET scan 60-120 minutes after administration",60%
same,% VMAT2 blocking,"VMAT2; subject 6 (68 kg), 15 mg oral, PET scan 60-120 minutes after administration",76%
same,% VMAT2 blocking,"VMAT2; subject 6 (68 kg), 22.5 mg oral, PET scan 60-120 minutes after administration",62%
